Measurements: paper PMC11882969 (Nature Communications, 2025)
Where “and” joins values, the source holds several entries; their conditions need not be identical. Equal values may be shown once. Read-outs that look alike come from different tables or passages of the source.

Key:
CB1 (rCB1) = CB1 (rCB1) (Rattus norvegicus, UniProt P20272); assay: Radioligand competition binding, [3H]-CP-55,940, rat brain membranes
hCB1 = hCB1 (Homo sapiens, UniProt P21554); assay: bioSensAll ebBRET signaling profiling, hCB1; format: cell-based; parameters: host or cells: HEK293SL cells, transient PEI transfection; details: for Gi1 hCB1 response: Gi1 biosensor; for Gi1 hCB1 / GoB hCB1: single replicate values, FigS6a; for Emax [95% CI]: normalized to CP-55,940; for EC50: read-out: EC50 [95% CI]
Sequence of hCB1 (P21554 whole entry): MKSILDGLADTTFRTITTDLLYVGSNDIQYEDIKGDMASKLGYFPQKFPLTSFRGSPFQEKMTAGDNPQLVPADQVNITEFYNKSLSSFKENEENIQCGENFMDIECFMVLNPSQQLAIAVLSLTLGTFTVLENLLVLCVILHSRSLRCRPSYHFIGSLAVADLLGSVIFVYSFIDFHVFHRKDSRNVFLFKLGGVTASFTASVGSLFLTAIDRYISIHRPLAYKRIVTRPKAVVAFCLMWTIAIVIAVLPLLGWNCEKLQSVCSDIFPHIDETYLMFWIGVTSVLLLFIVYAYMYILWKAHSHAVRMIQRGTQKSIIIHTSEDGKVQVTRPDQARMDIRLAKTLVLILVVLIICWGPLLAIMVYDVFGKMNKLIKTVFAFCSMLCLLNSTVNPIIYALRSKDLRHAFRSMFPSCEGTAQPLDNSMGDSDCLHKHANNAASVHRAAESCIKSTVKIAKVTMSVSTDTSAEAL

Sequence of CB1 (rCB1) (P20272 whole entry): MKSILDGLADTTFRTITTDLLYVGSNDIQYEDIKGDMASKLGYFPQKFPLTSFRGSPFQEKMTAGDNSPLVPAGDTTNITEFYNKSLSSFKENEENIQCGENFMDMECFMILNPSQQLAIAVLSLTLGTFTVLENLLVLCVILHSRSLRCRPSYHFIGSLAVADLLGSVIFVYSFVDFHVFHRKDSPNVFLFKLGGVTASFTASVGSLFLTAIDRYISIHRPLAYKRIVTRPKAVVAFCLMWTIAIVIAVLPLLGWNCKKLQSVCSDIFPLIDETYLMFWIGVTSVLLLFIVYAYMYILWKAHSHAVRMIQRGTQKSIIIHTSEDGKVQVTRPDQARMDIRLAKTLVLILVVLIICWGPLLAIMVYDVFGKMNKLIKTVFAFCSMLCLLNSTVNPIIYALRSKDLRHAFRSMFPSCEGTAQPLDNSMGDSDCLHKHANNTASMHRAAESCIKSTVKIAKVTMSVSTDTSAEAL

COC(=O)[C@@H]1[C@@H]2CC[C@@H]2CN1C(=O)c1cc(C)n(-c2cccc(C(F)(F)F)c2)n1 [‘6448]
pKi [95% CI] (CB1 (rCB1); rCB1): 6.1 [5.9 – 6.3] | Ki (CB1 (rCB1); read-out: Ki [95% CI], rCB1, [3H]-CP-55,940): 866 nM | Gi1 hCB1 response (hCB1; Log [Compound] (M) -4.22186): 143.498 | Gi1 hCB1 response (hCB1; Log [Compound] (M) -4.63927): 116.752 | Gi1 hCB1 response (hCB1; Log [Compound] (M) -5.05788): 114.537 | Gi1 hCB1 response (hCB1; Log [Compound] (M) -5.47381): 101.197 | Gi1 hCB1 response (hCB1; Log [Compound] (M) -5.89285): 80.4274 | Gi1 hCB1 response (hCB1; Log [Compound] (M) -6.31878): 64.6261 | Gi1 hCB1 response (hCB1; Log [Compound] (M) -6.72585): 36.0226 | Gi1 hCB1 response (hCB1; Log [Compound] (M) -7.14267): 33.4711 | Gi1 hCB1 response (hCB1; Log [Compound] (M) -7.55284): 2.182 | Gi1 hCB1 response (hCB1; Log [Compound] (M) -8): -1.914 | Gi1 hCB1 response (hCB1; Log [Compound] (M) -8.22186): -2.63 | Gi1 hCB1 response (hCB1; Log [Compound] (M) -8.39794): -2.8987 | Gi1 hCB1 response (hCB1; Log [Compound] (M) -8.68787): 4.689 | Gi1 hCB1 response (hCB1; Log [Compound] (M) -9.15521): 0.03327 | Gi1 hCB1 response (hCB1; Log [Compound] (M) -9.61989): -4.421 | Gi1 hCB1 response (hCB1; Log [Compound] (M) -10.0969): -3.391 | Gi1 hCB1 response (hCB1; Log [Compound] (M) -10.5529): -11.5156 | Gi1 hCB1 response (hCB1; Log [Compound] (M) -11.0177): -16.4171 | Gi1 hCB1 response (hCB1; Log [Compound] (M) -11.4949): -6.8826 | Gi1 hCB1 response (hCB1; Log [Compound] (M) -11.9208): -5.674 | Gi1 hCB1 response (hCB1; Log [Compound] (M) -12.3979): -5.204 | Gi1 hCB1 response (hCB1; Log [Compound] (M) -12.8861): 5.741 | Gi1 hCB1 response (hCB1; Log [Compound] (M) -13, individual replicate values): -12.366 and -4.51 | Gi1 hCB1 (hCB1; Log [Compound] (M) -4.22186): 89.2431 | GoB hCB1 (hCB1; Log [Compound] (M) -4.22186): 86.7412 | Gi1 hCB1 (hCB1; Log [Compound] (M) -4.63927): 88.0098 | GoB hCB1 (hCB1; Log [Compound] (M) -4.63927): 85.932 | Gi1 hCB1 (hCB1; Log [Compound] (M) -5.05788): 83.6623 | GoB hCB1 (hCB1; Log [Compound] (M) -5.05788): 87.6943 | Gi1 hCB1 (hCB1; Log [Compound] (M) -5.47381): 80.8256 | GoB hCB1 (hCB1; Log [Compound] (M) -5.47381): 88.7014 | Gi1 hCB1 (hCB1; Log [Compound] (M) -5.89285): 71.5911 | GoB hCB1 (hCB1; Log [Compound] (M) -5.89285): 74.7104 | Gi1 hCB1 (hCB1; Log [Compound] (M) -6.31878): 53.785 | GoB hCB1 (hCB1; Log [Compound] (M) -6.31878): 55.1804 | Gi1 hCB1 (hCB1; Log [Compound] (M) -6.72585): 28.6559 | GoB hCB1 (hCB1; Log [Compound] (M) -6.72585): 28.2594 | Gi1 hCB1 (hCB1; Log [Compound] (M) -7.14267): 11.4665 | GoB hCB1 (hCB1; Log [Compound] (M) -7.14267): 15.0956 | Gi1 hCB1 (hCB1; Log [Compound] (M) -7.55284): 4.6215 | GoB hCB1 (hCB1; Log [Compound] (M) -7.55284): 3.137 | Gi1 hCB1 (hCB1; Log [Compound] (M) -8): 2.093 | GoB hCB1 (hCB1; Log [Compound] (M) -8): 2.004 | Gi1 hCB1 (hCB1; Log [Compound] (M) -8.22186): -0.06514 | GoB hCB1 (hCB1; Log [Compound] (M) -8.22186): -3.751 | Gi1 hCB1 (hCB1; Log [Compound] (M) -8.39794): 1.1836 | GoB hCB1 (hCB1; Log [Compound] (M) -8.39794): 1.464 | Gi1 hCB1 (hCB1; Log [Compound] (M) -8.68787): -1.113 | GoB hCB1 (hCB1; Log [Compound] (M) -8.68787): -5.28 | Gi1 hCB1 (hCB1; Log [Compound] (M) -9.15521): -0.1114 | GoB hCB1 (hCB1; Log [Compound] (M) -9.15521): -2.294 | Gi1 hCB1 (hCB1; Log [Compound] (M) -9.61989): 0.7519 | GoB hCB1 (hCB1; Log [Compound] (M) -9.61989): -1.629 | Gi1 hCB1 (hCB1; Log [Compound] (M) -10.0969): 0.8753 | GoB hCB1 (hCB1; Log [Compound] (M) -10.0969): -3.751 | Gi1 hCB1 (hCB1; Log [Compound] (M) -10.5529): 1.9236 | GoB hCB1 (hCB1; Log [Compound] (M) -10.5529): -0.9636 | Gi1 hCB1 (hCB1; Log [Compound] (M) -11.0177): -0.281 | GoB hCB1 (hCB1; Log [Compound] (M) -11.0177): -2.384 | Gi1 hCB1 (hCB1; Log [Compound] (M) -11.4949): -0.1268 | GoB hCB1 (hCB1; Log [Compound] (M) -11.4949): -1.305 | Gi1 hCB1 (hCB1; Log [Compound] (M) -11.9208): -0.1885 | GoB hCB1 (hCB1; Log [Compound] (M) -11.9208): 1.266 | Gi1 hCB1 (hCB1; Log [Compound] (M) -12.3979): 1.723 | GoB hCB1 (hCB1; Log [Compound] (M) -12.3979): 0.7628 | Gi1 hCB1 (hCB1; Log [Compound] (M) -12.8861): 0.4436 | GoB hCB1 (hCB1; Log [Compound] (M) -12.8861): -2.798 | Gi1 hCB1 (hCB1; Log [Compound] (M) -13): 0.1969 and 0.2278 | GoB hCB1 (hCB1; Log [Compound] (M) -13): 1.32 and 1.356 | pEC50 [95% CI] (hCB1; hCB1 Gi1): 6.5 [6.4 – 6.5] | Emax [95% CI] (hCB1; hCB1 Gi1): 87 [86 – 88] | pEC50 [95% CI] (hCB1; hCB1 GoB): 6.5 [6.4 – 6.6] | Emax [95% CI] (hCB1; hCB1 GoB): 90 [87 – 91] | pEC50 [95% CI] (hCB1; hCB1 Gz): 6.1 [5.9 – 6.4] | Emax [95% CI] (hCB1; hCB1 Gz): 151 [130 –172] | EC50 (hCB1; hCB1 Gi1): 345 nM | EC50 (hCB1; hCB1 GoB): 310 nM | EC50 (hCB1; hCB1 Gz): 728 nM
